Consider 4 compounds from patent US20250368640A1 (BIOFRONT LTD, priority 2022, published 2025).

As usually defined, the IC50 is the concentration that gives 50% inhibition. A word on the Dmax: it is the greatest extent of degradation seen.

Test [1] deals with FLT3-ITD (Homo sapiens, UniProt P36888). Briefly: FLT3-ITD enzyme inhibition assay. The format is biochemical. To be noted: enzyme inhibition. As to the method:
(§1) FLT3-ITD Enzyme Inhibition Assay
(§2) The compound was dissolved in 100% DMSO at the concentration of 10 mM. The FLT3-ITD protein was purchased from Invitrogen (PV6191). 10 μL per well of 2.5×FLT3-ITD protein was added to assay plate containing the test compound, centrifuged at 1000 rpm for 1 minute, and then incubated at 25° C. for 10 minutes. Peptide 2 was purchased from GL Biochem (112394) and ATP was purchased from Promega (V9102). The two were added 15 μL per well mixture of 1.67× peptide 2 (final conc. is 3 μM) and ATP (final conc. is 97.2 μM), centrifuged at 1000 rpm for 1 minute, then incubated at 25° C. for 40 minutes. Then added 30 μL of stop buffer (100 mM HEPES pH7.5, 0.015% Brij-35, 0.2% Coating Reagent 3, 50 mM EDTA) to the assay plate and centrifuged at 1000 rpm for 1 minute. the product was determined. Based on the results, the IC50 value of the compound was calculated.

In the next test the test system is FLT3. In words: FLT3 degradation assay (western blot, MV-411 cells). The test is classed as cell-based, human. As to the method: (§3) MV-411 cells were cultured with medium (IMDM) prior to use. Cells were then incubated with a variety of concentrations of compound. After incubation, the cells were collected and lysed. The protein concentration was determined by BCA protein assay kit from Thermo (23227). The FLT3 protein level was determined by western blots, using anti-human FLT3 monoclonal antibody from CST (3462S). Proteins were loaded into each well of the pre-casting gels and subjected to electrophoretic separation by SDS-PAGE. The protein resolved by SDS-PAGE were transferred to PVDF, blocked by 5% skim milk, and probed with anti-human FLT3 antibody or -actin antibody from CST (3700S), using standard western blotting procedure.

In test [2] the target is T1, Aurora A (Homo sapiens (Human), UniProt O14965). In words: Aurora A enzyme inhibition assay. The format is biochemical. As to the method: Aurora A Enzyme Inhibition Assay
The compound was dissolved in 100% DMSO at the concentration of 10 mM. The Aurora A protein was purchased from Carna (05-101). 10 μL per well of 2.5×Aurora A protein was added to assay plate containing the test compound, centrifuged at 1000 rpm for 1 minute, and then incubated at 25° C. for 10 minutes. Peptide 21 was purchased from GL Biochem (116370) and ATP was purchased from Promega (V9102). The two were added 15 μL per well mixture of 1.67× peptide 21 (final conc. is 3 μM) and ATP (final conc. is 14.58 μM), centrifuged at 1000 rpm for 1 minute, then incubated at 25° C. for 40 minutes. Then added 30 μL of stop buffer (100 mM HEPES pH7.5, 0.015% Brij-35, 0.2% Coating Reagent 3, 50 mM EDTA) to the assay plate and centrifuged at 1000 rpm for 1 minute. the product was determined. Based on the results, the IC50 value of the compound was calculated.

Test [3] has as its target T1, Aurora A. Briefly: Aurora A degradation assay (western blot). The format is cell-based. As to the method: Aurora A Degradation Assay
as §3, with “IMR32” for “MV-411”, “cultured with medium (MEM), Huh7 cells were cultured with medium (DMEM) and HL-60 cells were culture” for “cultured”, “AURKA” for “FLT3”, “(14475S).” for “(3462S).”, “β-actin” for “-actin”, “(3700S) or COX IV antibody from CST (4850S),” for “(3700S),”
Background: A western blot detects proteins with antibodies after separation by electrophoresis.

Test [4] concerns the target T2, HPK1 (Homo sapiens (Human), UniProt Q92918). In words: HPK1 enzyme inhibition assay (ADP-Glo). The format is biochemical. As to the method: HPK1 Enzyme Inhibition Assay
The compound was dissolved in 100% DMSO at the concentration of 10 mM. The HPK1 protein was purchased from Signal Chem (M23-11G-10). 2.5 μL per well of 2×HPK1 protein was added to assay plate containing the test compound, centrifuged at 1500 rpm for 1 minute, and then incubated at 25° C. for 60 minutes. MBP protein was purchased from Signal Chem (M42-51N) and ATP was purchased from Promega (V9102). The two were added 2.5 μL per well mixture of 2×MBP (0.2 ug/ul) and ATP (20 μM), centrifuged at 1500 rpm for 1 minute, then incubated at 25° C. for 60 minutes. Then added 5 μL of ADP-Glo from Promega (V9102) to the assay plate and depleted the unconsumed ATP for 60 minutes. Then centrifuged at 1500 rpm for 1 minute and incubated at 25° C. for 60 minutes. Finally, 10 μL of the kinase assay reagent from Promega (V9102) was added to the assay plate to convert ADP to ATP, centrifuged at 1500 rpm for 1 minute, incubate at 25° C. for 40 minutes. After 40 minutes incubation, the […] was determined. Based on the results, the IC50 value of the compound was calculated.
Target sequence in this assay (Q92918 1-346 limits assumed): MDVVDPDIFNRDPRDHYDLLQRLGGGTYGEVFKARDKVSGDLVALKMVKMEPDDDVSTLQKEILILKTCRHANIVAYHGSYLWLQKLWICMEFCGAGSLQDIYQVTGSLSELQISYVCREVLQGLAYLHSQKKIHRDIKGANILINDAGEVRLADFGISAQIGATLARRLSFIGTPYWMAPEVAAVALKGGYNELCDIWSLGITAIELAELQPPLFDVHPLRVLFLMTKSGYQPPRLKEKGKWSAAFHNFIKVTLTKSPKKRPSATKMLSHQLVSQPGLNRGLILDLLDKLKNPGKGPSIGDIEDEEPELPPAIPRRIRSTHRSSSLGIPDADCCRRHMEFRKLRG

The target in test [5] is T2, HPK1. In words: HPK1 degradation assay (western blot, human PBMC). The test is classed as cell-based. As to the method: Frozen human PBMC were purchased from Shanghai OribioTech and recovered with culture medium (RMPI1640) prior to use. The cells were then incubated with a variety of concentrations of compound. After incubation, the cells were collected and lysed. The protein concentration was determined by BCA protein assay kit from Thermo (23227). The HPK1 protein level was determined by western blots, using anti-human HPK1 polyclonal antibody from CST (4472S). Proteins were loaded into each well of the pre-casting gels and subjected to electrophoretic separation by SDS-PAGE. The protein resolved by SDS-PAGE were transferred to PVDF, blocked by 5% skim milk, and probed with anti-human HPK1 antibody or β-actin antibody from CST (3700S), using standard western blotting procedure.
Target sequence in this assay (Q92918 whole entry): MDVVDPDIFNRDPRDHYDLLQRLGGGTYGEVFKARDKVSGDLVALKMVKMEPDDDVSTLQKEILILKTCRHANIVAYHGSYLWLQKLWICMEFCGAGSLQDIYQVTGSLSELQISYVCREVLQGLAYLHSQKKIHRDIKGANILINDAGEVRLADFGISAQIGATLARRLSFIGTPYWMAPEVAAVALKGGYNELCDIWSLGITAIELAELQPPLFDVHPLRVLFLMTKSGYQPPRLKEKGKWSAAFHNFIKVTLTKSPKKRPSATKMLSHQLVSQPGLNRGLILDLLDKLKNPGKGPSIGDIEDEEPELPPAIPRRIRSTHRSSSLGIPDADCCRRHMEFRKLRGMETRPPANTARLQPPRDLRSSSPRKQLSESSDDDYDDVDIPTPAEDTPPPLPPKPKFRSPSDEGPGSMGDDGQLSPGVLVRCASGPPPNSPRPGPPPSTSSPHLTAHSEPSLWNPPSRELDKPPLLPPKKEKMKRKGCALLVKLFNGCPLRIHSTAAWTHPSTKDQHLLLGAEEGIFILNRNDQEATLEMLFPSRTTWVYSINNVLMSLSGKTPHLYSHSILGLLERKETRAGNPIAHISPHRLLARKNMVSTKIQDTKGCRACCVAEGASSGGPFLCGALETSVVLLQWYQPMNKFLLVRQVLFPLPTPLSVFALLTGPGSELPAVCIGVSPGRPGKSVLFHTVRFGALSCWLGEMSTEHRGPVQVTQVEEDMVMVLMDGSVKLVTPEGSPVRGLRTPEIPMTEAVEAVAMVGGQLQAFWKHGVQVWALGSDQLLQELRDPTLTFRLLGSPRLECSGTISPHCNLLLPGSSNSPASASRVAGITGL

The test system of another test is MEK 1/2. Briefly: MEK 1/2 degradation assay (western blot). The format is cell-based, human. To be noted: protein degradation, MV-411 or IMR32 cells. As to the method:
MEK 1/2 Degradation Assay
as §3, with “(IMDM) and IMR32 cells were cultured with medium (MEM)” for “(IMDM)”, “anti-human MEK 1/2 polyclonal” for “anti-human FLT3 monoclonal”, “CST (9122S).” for “CST (3462S).”, “anti-human MEK1/2” for “anti-human FLT3”, “or β-actin” for “or -actin”, “CST (3700S) and COX IV antibody from CST (4850S),” for “CST (3700S),”

Test [6] deals with FLT3-ITD (Homo sapiens, UniProt P36888, ITD). In words: FLT3-ITD enzyme inhibition assay. The format is biochemical. Particulars: enzyme inhibition; read-out: FLT3-ITD IC50. As to the method:
as §1, §2

[7] abbreviates: protein degradation, class symbol, read-out: FLT3 DC50 (nM)/Dmax (%).
[8] abbreviates: protein degradation, IMR32, Huh7 or HL-60 cells, read-out: Aurora A DC50.
[9] abbreviates: protein degradation, human PBMC, read-out: HPK1 DC50.
The mark [10] stands for this setting: protein degradation, IMR32, Huh7 or HL-60 cells, class symbol, read-out: Aurora A DC50 (nM)/Dmax (%).
The mark [11] stands for this setting: protein degradation, human PBMC, class symbol, read-out: HPK1 DC50 (nM)/Dmax (%).

Read-outs that look alike come from different tables or passages of the source.

Chain of FLT3-ITD (Homo sapiens, UniProt P36888, ITD) (P36888 whole entry, looked up, change not shown): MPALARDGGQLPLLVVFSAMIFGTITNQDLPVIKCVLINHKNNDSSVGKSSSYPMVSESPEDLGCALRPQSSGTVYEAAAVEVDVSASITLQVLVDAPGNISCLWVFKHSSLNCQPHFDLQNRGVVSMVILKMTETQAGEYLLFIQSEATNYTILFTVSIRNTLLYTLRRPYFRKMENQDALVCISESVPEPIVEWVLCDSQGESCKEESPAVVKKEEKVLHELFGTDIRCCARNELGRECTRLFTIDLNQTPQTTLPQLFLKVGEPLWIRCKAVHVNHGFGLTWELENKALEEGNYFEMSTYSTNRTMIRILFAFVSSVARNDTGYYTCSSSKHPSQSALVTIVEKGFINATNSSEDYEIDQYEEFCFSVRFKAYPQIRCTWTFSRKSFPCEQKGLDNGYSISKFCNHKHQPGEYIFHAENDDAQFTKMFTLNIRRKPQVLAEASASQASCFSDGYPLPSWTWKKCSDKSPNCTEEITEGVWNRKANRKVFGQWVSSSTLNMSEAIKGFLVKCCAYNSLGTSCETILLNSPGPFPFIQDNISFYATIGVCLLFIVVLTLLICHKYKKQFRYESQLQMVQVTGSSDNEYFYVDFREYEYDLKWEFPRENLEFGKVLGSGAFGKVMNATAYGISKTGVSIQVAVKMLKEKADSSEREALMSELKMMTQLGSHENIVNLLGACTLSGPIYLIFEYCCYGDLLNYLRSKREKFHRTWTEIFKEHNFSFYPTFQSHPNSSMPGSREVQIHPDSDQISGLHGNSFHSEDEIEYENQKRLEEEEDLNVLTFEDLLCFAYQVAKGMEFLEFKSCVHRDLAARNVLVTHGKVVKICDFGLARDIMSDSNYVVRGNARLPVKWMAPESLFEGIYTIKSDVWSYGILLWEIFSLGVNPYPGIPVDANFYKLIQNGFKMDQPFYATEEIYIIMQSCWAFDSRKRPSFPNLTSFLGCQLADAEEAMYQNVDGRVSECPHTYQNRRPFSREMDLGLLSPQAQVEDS
T1 sequence (O14965 whole entry): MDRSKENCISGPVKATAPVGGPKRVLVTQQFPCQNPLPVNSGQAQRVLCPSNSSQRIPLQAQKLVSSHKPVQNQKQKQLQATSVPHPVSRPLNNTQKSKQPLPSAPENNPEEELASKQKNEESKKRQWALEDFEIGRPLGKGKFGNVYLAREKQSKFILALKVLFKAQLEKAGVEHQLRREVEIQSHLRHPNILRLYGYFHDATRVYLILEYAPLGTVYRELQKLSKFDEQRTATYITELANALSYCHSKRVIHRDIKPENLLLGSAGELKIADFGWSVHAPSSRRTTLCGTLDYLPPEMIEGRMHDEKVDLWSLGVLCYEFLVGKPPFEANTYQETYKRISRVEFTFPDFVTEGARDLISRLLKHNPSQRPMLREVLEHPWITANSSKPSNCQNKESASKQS
Chain of FLT3-ITD (Homo sapiens, UniProt P36888) (P36888 whole entry, looked up, change not shown): as the sequence (P36888 whole entry, looked up, change not shown) above

With `CCc1c[nH]c2ncc(-c3cccc(N4CCCN(CCN5CCN(c6cc7c(cc6F)C(=O)N(C6CCC(=O)NC6=O)C7)CC5)C4=O)c3)c(Cl)c12` (stereo not drawn) [Example 7, 3-(5-(4-(2-(3-(3-(4-chloro-3-ethyl-1H-pyrrolo [2,3-b]pyridin-5-yl)phenyl)-2-oxotetrahydropyrimidin-1 (2H)-yl)ethyl)piperazin-1-yl)-6-fluoro-1-oxoisoindolin-2-yl) piperidine-2,6-dione], the IC50 at FLT3-ITD [1] came out at 0.0123 µM; at Aurora A [2], 0.0106 µM; on HPK1 [4], 0.0105 µM. For the same compound, the DC50 is more than 10000 nM in the test on FLT3 (setting [7]), 5 nM at Aurora A [3] (setting [8]), 12 nM at HPK1 [5] (setting [9]) and 264 nM in the test on MEK 1/2 (read-out: MEK 1/2 DC50). Besides, the “Aurora A Dmax” value at Aurora A [3] (protein degradation, IMR32, Huh7 or HL-60 cells) is recorded as 50%. Besides, the “HPK1 Dmax” value on HPK1 [5] (protein degradation, human PBMC) was found to be 60%. In addition, in the test on MEK 1/2, the “MEK 1/2 Dmax” value amounted to 37%.

Take `O=C1CCC(N2C(=O)c3cc(F)c(N4CCC(CCN5CCCN(c6cccc(-c7cnc8[nH]cc(C9CC9)c8c7Cl)c6)C5=O)CC4)cc3C2=O)C(=O)N1` (stereo not drawn) [Example 9, 5-(4-(2-(3-(3-(4-chloro-3-cyclopropyl-1H-pyrrolo [2,3-b]pyridin-5-yl)phenyl)-2-oxotetrahydropyrimidin-1 (2H)-yl)ethyl)piperidin-1-yl)-2-(2,6-dioxopiperidin-3-yl)-6-fluoroisoindoline-1,3-dione]: the IC50 amounted to 0.0365 µM at FLT3-ITD [6], 0.131 µM at Aurora A [2] and 0.0629 µM at HPK1 [4]. Besides, the “FLT3 Dmax” value in the test with FLT3 (protein degradation) stood at 60%. Further, the DC50 in the test on FLT3 (read-out: FLT3 DC50, protein degradation) is 100 nM; at Aurora A [3] (setting [8]), more than 1000 nM; at HPK1 [5] (setting [9]), 294 nM; in the test with MEK 1/2 (read-out: MEK 1/2 DC50 (nM)/Dmax (%), class symbol), more than 10000 nM. Besides, the Dmax on Aurora A [3] (read-out: Aurora A Dmax) and on HPK1 [5] (read-out: HPK1 Dmax) was 50% each time.

With `CCc1c[nH]c2ncc(-c3cccc(N4CCCN(CCN5CC=C(c6ccc7c(c6)C(=O)N(C6CCC(=O)NC6=O)C7=O)CC5)C4=O)c3)c(Cl)c12` (stereo not drawn) [Example 5, 5-(1-(2-(3-(3-(4-chloro-3-ethyl-1H-pyrrolo [2,3-b]pyridin-5-yl)phenyl)-2-oxotetrahydropyrimidin-1 (2H)-yl)ethyl)-1,2,3,6-tetrahydropyridin-4-yl)-2-(2,6-dioxopiperidin-3-yl) isoindoline-1,3-dione], the results for the IC50 at FLT3-ITD [6], against Aurora A [2] and against HPK1 [4] were 0.0277 µM, 0.0218 µM and 0.0134 µM, respectively. Moreover, the DC50 in the test with FLT3 (setting [7]) was more than 10000 nM; on Aurora A [3] (setting [10]), more than 10000 nM; at HPK1 [5] (setting [11]), more than 10000 nM; with MEK 1/2 (read-out: MEK 1/2 DC50) it was 2.1 nM. In the test on MEK 1/2, the “MEK 1/2 Dmax” value worked out at 65%.

Take `CCc1c[nH]c2ncc(-c3cccc(N4CCCN(CCN5CC(c6ccc7c(c6)C(=O)N(C6CCC(=O)NC6=O)C7=O)C5)C4=O)c3)c(Cl)c12` (stereo not drawn) [Example 6, 5-(1-(2-(3-(3-(4-chloro-3-ethyl-1H-pyrrolo [2,3-b]pyridin-5-yl)phenyl)-2-oxotetra hydropyrimidin-1 (2H)-yl)ethyl)azetidin-3-yl)-2-(2,6-dioxopiperidin-3-yl) isoindo line-1,3-dione]: the IC50 at FLT3-ITD [6] was 0.0184 µM; against Aurora A [2] it was 0.0099 µM; against HPK1 [4] it was 0.0031 µM. Moreover, the DC50 in the test with FLT3 (setting [7]) is more than 10000 nM; on Aurora A [3] (setting [10]) it was more than 10000 nM; at HPK1 [5] (setting [11]), more than 10000 nM; in the test with MEK 1/2 (read-out: MEK 1/2 DC50) it was less than 1 nM. The “MEK 1/2 Dmax” value in the test on MEK 1/2 amounted to 32%.
